Experiment in all cases: Michaelis-Menten kinetics, yeast microsomes, HPLC of product […]
One assay has as its system T1, HpRPThxa.
T1 construct: gene RPThxa; full-length, 1173 bp ORF, pESC-URA, yeast INVSc1 microsomes
Type of assay: biochemical, Hypericum perforatum. The note with it: Mg2+, optimum pH 9.0-9.5, 40 °C, read-out: apparent KM.

For a further assay, the system named is T2, HsRPThxa.
T2 construct: gene RPThxa; full-length, 1176 bp ORF, pESC-URA, yeast INVSc1 microsomes
The format is biochemical, Hypericum sampsonii. The note with it: Mg2+, optimum pH 9.0-9.5, 35 °C, read-out: apparent KM.

For the next assay, the system named is T3, HsRPThxa-tr.
T3 construct: gene RPThxa; lacks the N-terminal 24 residues (transit peptide), yeast microsomes
Type of assay: biochemical, Hypericum sampsonii. The note with it: optimum pH 9.0-10.0, 40 °C, read-out: apparent KM.

The mark [1] stands for this setting: formation of hyperixanthone A (C-4 reverse prenylation), co-substrate DMAPP.

The structures appear in SMILES notation. Where two headings read alike, the source gives them in different places.

The Km is the concentration of substrate that gives half-maximal velocity. `CC(C)=CCC1(CC=C(C)C)C(=O)C(O)=Cc2oc3cc(O)cc(O)c3c(=O)c21` [compound 2, patulone]: the values for the Km in the assay with HpRPThxa (setting [1]), in the assay on HsRPThxa (setting [1]) and in the assay with HsRPThxa-tr (co-substrate DMAPP) were 46 ± 4.43 µM, 52.4 ± 4.16 µM and 31.3 ± 4.05 µM, respectively.

In the case of `CC(C)=CCOP(=O)(O)OP(=O)(O)O` [DMAPP], the Km came out at 260 ± 22.9 µM with HpRPThxa (co-substrate patulone), 102 ± 6.35 µM in the assay on HsRPThxa (co-substrate patulone) and 30.9 ± 2.58 µM in the assay on HsRPThxa-tr (co-substrate patulone).
